Molecular target: T1, Ribonuclease pancreatic (Homo sapiens, UniProt P07998)
T1 sequence (P07998 whole entry): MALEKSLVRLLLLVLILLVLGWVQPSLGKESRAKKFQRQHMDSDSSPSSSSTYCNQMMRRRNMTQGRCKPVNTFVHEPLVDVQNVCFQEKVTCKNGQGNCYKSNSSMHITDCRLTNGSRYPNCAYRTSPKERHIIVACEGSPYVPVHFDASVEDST
Experiment: Inhibition of ribonucleolytic activity of RNase A by agarose gel based assay

SMILES | Ki [µM]
O=C(O)C1CCN([C@H]2[C@H](O)[C@H](n3ccc(=O)[nH]c3=O)O[C@@H]2CO)CC1 | 103
CCOC(=O)C1CCN([C@H]2[C@H](O)[C@H](n3ccc(=O)[nH]c3=O)O[C@@H]2CO)CC1 | 120
